# Reference: the supplement of paper PMC11208160
# Assay: recombinant barcode read abundance after kanamycin selection (control-corrected) (log10(CPM+1)); higher = more efficient recombination; sequences stand for … in AGTGCAGAGAAAATCGGCCAGTTTTCTCTGCCTGCAGTCCGCATGCCGT…AGATTTATGCAGCGGACTGCCTTTCTCCCAAAGTGATAAACCGGACAGTATCATGGACCGGTTTTCCCGGTAATCCGTATTTGCAAGGTTGGTTTCACT; site = the 11-nt target
# Summary of the method: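 Recombination efficiency comes from barcode counts at recombinant junctions, converted to counts per million, averaged and corrected against the control. Values appear as log10(CPM+1). They were obtained from a pooled E. coli screen in which each oligo paired a target with an IS621 bridge RNA target-binding loop, and cells were plated in duplicate on chloramphenicol/ampicillin LB agar or on chloramphenicol/ampicillin/kanamycin with 0.1 mM IPTG.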
# 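Note: IS621 recombinase and bridge RNA in Escherichia coli cells.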
row,Sequence,recombinant barcode read abundance (log10)
1,GTTACCGCTTGGGTTCTAACCTGTTGCCT (site GTAACCGCTAG),0.602
2,GTTACCGCTTGGGTTCTAACCTGTTGCCT (site GTCACCGCTAG),0.345
3,GTTACCGCTTGGGTTCTAACCTGTTGCCT (site GTGACCGCTAG),0.0865
4,GTTACCGCTTGGGTTCTAACCTGTTGCCT (site GTTACCGCTAG),1.64
5,GTTACGTCTTGGGTTCTAACCTGTTGCTT (site AGTACGTCTAA),0.115
6,GTTACGTCTTGGGTTCTAACCTGTTGCTT (site GTTACGTCTAA),0.285
7,GTTAGACCTTGGGTTCTAACCTGTTGCCT (site GTTAGACCTAG),0.949
8,GTTAGACCTTGGGTTCTAACCTGTTGCCT (site TGCCTCTCTTA),0.0193
9,GTTCAGCCTTGGGTTCTAACCTGTTGCCT (site GTCGAGCCTAG),0.0107
10,GTTCAGCCTTGGGTTCTAACCTGTTGCCT (site GTTCAGCCTAG),0.611
11,GTTCCAGCTTGGGTTCTAACCTGTTGCCT (site AGCAGCCCTCT),0.0192
12,GTTCCAGCTTGGGTTCTAACCTGTTGCCT (site GTTCCAGCTAG),0.792
13,GTTCCATCTTGGGTTCTAACCTGTTGCCT (site GATCCATCTAG),0.172
14,GTTCCATCTTGGGTTCTAACCTGTTGCCT (site GCTCCATCTAG),0.28
15,GTTCCATCTTGGGTTCTAACCTGTTGCCT (site GGTCCATCTAG),0.216
16,GTTCCATCTTGGGTTCTAACCTGTTGCCT (site GTTCCATCTAG),0.601
17,GTTCCGGCTTGGGTTCTAACCTGTTGCCT (site GTTACGGCTAG),0.139
18,GTTCCGGCTTGGGTTCTAACCTGTTGCCT (site GTTCCGGCTAG),0.834
19,GTTCCGGCTTGGGTTCTAACCTGTTGCCT (site GTTGCGGCTAG),0.145
20,GTTCCGGCTTGGGTTCTAACCTGTTGCCT (site GTTTCGGCTAG),0.373
21,GTTCCTACTTGGGTTCTAACCTGTTGCCT (site GATCCTACTAG),0.215
22,GTTCCTACTTGGGTTCTAACCTGTTGCCT (site GCTCCTACTAG),0.00954

row,Sequence,recombinant barcode read abundance (log10)
1,GTTCCTACTTGGGTTCTAACCTGTTGCCT (site GGTCCTACTAG),0.133
2,GTTCCTACTTGGGTTCTAACCTGTTGCCT (site GTTCCTACTAG),0.328
3,GTTGCCACTTGGGTTCTAACCTGTTGCCT (site GTAGCCACTAG),0.137
4,GTTGCCACTTGGGTTCTAACCTGTTGCCT (site GTCGCCACTAG),0.0124
5,GTTGCCACTTGGGTTCTAACCTGTTGCCT (site GTGGCCACTAG),0.0918
6,GTTGCCACTTGGGTTCTAACCTGTTGCCT (site GTTGCCACTAG),0.411
7,GTTGGAACTTGGGTTCTAACCTGTTGCGT (site GTTGGAACTAC),2.05
8,GTTGGAACTTGGGTTCTAACCTGTTGCGT (site GTTGGGACTAG),0.312
9,GTTGGCGCTTGGGTTCTAACCTGTTGCCT (site GTAGGCGCTAG),0.276
10,GTTGGCGCTTGGGTTCTAACCTGTTGCCT (site GTCGGCGCTAG),0.125
11,GTTGGCGCTTGGGTTCTAACCTGTTGCCT (site GTGGGCGCTAG),0.0363
12,GTTGGCGCTTGGGTTCTAACCTGTTGCCT (site GTTGGCGCTAG),0.841
13,GTTGGGGCTTGGGTTCTAACCTGTTGCCT (site GTGGTGGCTAG),0.254
14,GTTGGGGCTTGGGTTCTAACCTGTTGCCT (site GTTGGGGCTAG),0.634
15,GTTTAATCTTGGGTTCTAACCTGTTGCAT (site GTTTAATCTAT),0.343
16,GTTTAATCTTGGGTTCTAACCTGTTGCAT (site TGGGTCACTTA),0.0197
17,GTTTGGACTTGGGTTCTAACCTGTTGCAG (site GCTTGGACTAT),0.153
18,GTTTGGACTTGGGTTCTAACCTGTTGCAG (site GTTTGGACTCT),1.11
19,GTTTGGACTTGGGTTCTAACCTGTTGCTG (site GTTTGGACTCA),1.06
20,GTTTGGACTTGGGTTCTAACCTGTTGCTG (site GTTTGGACTTA),0.195
21,TAAAAGACTTGGGTTCTAACCTGTTGCCT (site TAAAAGACTAG),0.307
22,TAAAAGACTTGGGTTCTAACCTGTTGCCT (site TAAAAGCCTAG),0.0498

row,Sequence,recombinant barcode read abundance (log10)
1,TAAAAGACTTGGGTTCTAACCTGTTGCCT (site TAAAAGGCTAG),0.311
2,TAAAAGACTTGGGTTCTAACCTGTTGCCT (site TAAAAGTCTAG),0.178
3,TAAAAGTCTTGGGTTCTAACCTGTTGCCT (site TAAAAGACTAG),0.108
4,TAAAAGTCTTGGGTTCTAACCTGTTGCCT (site TAAAAGCCTAG),0.0186
5,TAAAAGTCTTGGGTTCTAACCTGTTGCCT (site TAAAAGGCTAG),0.0795
6,TAAAAGTCTTGGGTTCTAACCTGTTGCCT (site TAAAAGTCTAG),0.696
7,TAAAGTACTTGGGTTCTAACCTGTTGCTT (site TAAAGTACTAA),0.467
8,TAAAGTACTTGGGTTCTAACCTGTTGCTT (site TAACGTACTAA),0.0583
9,TAAAGTACTTGGGTTCTAACCTGTTGCTT (site TAAGGTACTAA),0.017
10,TAAAGTACTTGGGTTCTAACCTGTTGCTT (site TAATGTACTAA),0.0546
11,TAACACTCTTGGGTTCTAACCTGTTGCCT (site TAACACTCTAG),2
12,TAACACTCTTGGGTTCTAACCTGTTGCCT (site TCACAGTCTAG),0.19
13,TAACAGTCTTGGGTTCTAACCTGTTGCGT (site TAACAGTCTAC),2.85
14,TAACAGTCTTGGGTTCTAACCTGTTGCGT (site TAACCGTCTAT),0.246
15,TAACCGTCTTGGGTTCTAACCTGTTGCAT (site TAACAGTCTAC),0.179
16,TAACCGTCTTGGGTTCTAACCTGTTGCAT (site TAACCGTCTAT),0.286
17,TAACCTACTTGGGTTCTAACCTGTTGCCT (site TAACCTACTAG),0.442
18,TAACCTACTTGGGTTCTAACCTGTTGCCT (site TAACCTCCTAG),0.055
19,TAACCTACTTGGGTTCTAACCTGTTGCCT (site TAACCTGCTAG),0.0455
20,TAACCTACTTGGGTTCTAACCTGTTGCCT (site TAACCTTCTAG),0.0774
21,TAACCTACTTGGGTTCTAACCTGTTGCTA (site GGTGAGGCTAT),0.0991
22,TAACCTACTTGGGTTCTAACCTGTTGCTA (site TAACCTACTTA),0.864
